# Reference: patent US6949250B2, “Selective algaecides for control of cyanochloronta” (The United States of America as represented by the …, priority 2002, dated 2005)
# Entries after “also recorded” stand apart in the source; their conditions may differ. Like-named read-outs stand apart in the source and are kept apart here.
# Key:
# O. perornata [1] = assay: Pond efficacy testing of 9,10-anthraquinone using limnocorrals: O. perornata numbers; assay type: in vivo, Oscillatoria perornata; details: dissolved in ethanol, unpublished observations
# From the text: (§1) Previous research (K. K. Schrader, M. Q. de Regt, P. D. Tidwell, C. S. Tucker and S. O. Duke, Selective growth inhibition of the musty-odor producing cyanobacterium Oscillatoria cf. chalybea by natural compounds. Bull. Environ. Contam. Toxicol. (1998a), vol. 60, pp. 651-658) has identified several natural compounds from plants that are selectively toxic towards O. perornata.
# MIB = assay: Pond efficacy testing of 9,10-anthraquinone using limnocorrals: MIB levels; assay type: in vivo; details: dissolved in ethanol, unpublished observations
# From the text: as §1
# O. perornata [2] = details: cited from earlier work
# Oscillatoria perornata = assay: Rapid bioassay screening for selective algicides (LOEC, LCIC); assay type: cell-based; details: rapid screening; for MIC: read-out: LCIC (lowest-complete-inhibition concentration), Oscillatoria perornata; for minimal effective concentration: read-out: LOEC (lowest-observed-effect concentration), Oscillatoria perornata
# From the text: (§2) These were screened in the laboratory by the method of Schrader et al. (K. K. Schrader, M. Q. de Regt, C. S. Tucker and S. O. Duke, A rapid bioassay for selective algicides. Weed Technol. (1997), vol. 11, pp. 767-774) for algicidal activity.
# (§3) The anthraquinone derivatives were screened for selective toxicity towards Oscillatoria perornata, previously isolated from a Mississippi catfish pond, using the method of Schrader et al. (1997). The green alga Selenastrum capricornutum (obtained from the United States Environmental Protection Agency, Corvallis, Oreg.) was used as the representative green algal species in the bioassay since it is a common species found in southeastern United States catfish ponds. Absorbance readings were graphed, and graphs were used to determine the LOEC (lowest-observed-effect concentration) and the LCIC (lowest-complete-inhibition concentration) for each anthraquinone analog. In addition, a 96-hour 50% inhibition concentration (IC50) was determined for DNA1-19-1 and DNA2-59-1 by using the method described by Schrader et al. (1998b). Stock solutions of DNA1-19-1 and DNA2-59-1 were prepared so that final concentrations screened for 96-hour IC50 determinations were as follows: 1) 0, 0.01, 0.033, 0.1, 0.333, 1.0, 3.3, and 10.0 μM DNA1-19-1 for both O. perornata and S. capricornutum; 2) 0, 0.003, 0.01, 0.033, 0.1, 0.333, 1.0, and 3.333 μM DNA2-59-1 for O. perornata; and 3) 0, 0.1, 0.333, 1.0, 3.333, 10.0, 33.333, and 100.0 μM DNA2-59-1 for S. capricornutum. Estimation of the IC50 was determined by plotting 96-hour absorbance readings against logarithmic dilution values of the anthraquinone analogs. The screening results of the anthraquinone derivatives and commercially available analogs of anthraquinone are presented in Tables 1 and 2, respectively. The results in Table 1 reveal that DNA1-19-1 and DNA2-59-1 are the most promising analogs since these two compounds had the lowest LOEC and LCIC values for O. perornata (10 nM and 100 nM, respectively). Based upon IC50 results in Table 3, DNA2-59-1 appears to be more toxic and selective towards O. perornata than DNA1-19-1.
# as §3, with “(A rapid bioassay for selective algicides. Weed Technol. (1997), vol. 11, pp. 767-774).” for “(1997).”, “(K. K. Schradar, M. Q. de Regt, P. D. Tidwell, C. S. Tucker and S. O. Duke, Selective growth inhibition of the musty-odor producing cyanobacterium Oscillatoria cf. chalybea by natural compounds. Bull. Environ. Contam. Toxicol. (1998a), vol.60, pp. 651-658).” for “(1998b).”, “The screening results of the anthraquinone derivatives and commercially available analogs of anthraquinone are presented in Tables 1 and 2, respectively. The results in Table 1 reveal that DNA1-19-1 and DNA2-59-1 are the most promising analogs since these two compounds had the lowest LOEC and LCIC values for O. perornata (10 nM and 100 nM, respectively). Based upon IC50 results in Table 3, DNA2-59-1 appears to be more toxic and selective towards O. perornata than DNA1-19-1.” left out
# [3] = system: Selenastrum capricornutum; assay: as above; assay type: cell-based; details: rapid screening; for MIC / minimal effective concentration: Selenastrum capricornutum; for MIC: read-out: LCIC (lowest-complete-inhibition concentration), Selenastrum capricornutum; for minimal effective concentration: read-out: LOEC (lowest-observed-effect concentration), Selenastrum capricornutum
# From the text: as §2, §3
# as §3, with “(A rapid bioassay for selective algicides. Weed Technol. (1997), vol. 11, pp. 767-774).” for “(1997).”, “(K. K. Schradar, M. Q. de Regt, P. D. Tidwell, C. S. Tucker and S. O. Duke, Selective growth inhibition of the musty-odor producing cyanobacterium Oscillatoria cf. chalybea by natural compounds. Bull. Environ. Contam. Toxicol. (1998a), vol.60, pp. 651-658).” for “(1998b).”, “The screening results of the anthraquinone derivatives and commercially available analogs of anthraquinone are presented in Tables 1 and 2, respectively. The results in Table 1 reveal that DNA1-19-1 and DNA2-59-1 are the most promising analogs since these two compounds had the lowest LOEC and LCIC values for O. perornata (10 nM and 100 nM, respectively). Based upon IC50 results in Table 3, DNA2-59-1 appears to be more toxic and selective towards O. perornata than DNA1-19-1.” left out
SMILES,MIC (Oscillatoria perornata; Planktothrix perornata),MIC [3],"LCIC (lowest-complete-inhibition concentration), Oscillatoria perornata (Oscillatoria perornata)",minimal effective concentration (Oscillatoria perornata),"LCIC (lowest-complete-inhibition concentration), Selenastrum capricornutum [3]","LOEC (lowest-observed-effect concentration), Selenastrum capricornutum [3]",further results
"O=C1c2ccccc2C(=O)c2ccccc21 [9,10-anthraquinone]",–,–,–,–,–,–,reduction of numbers of O. perornata in pond (result in words) (O. perornata [1]): did not effectively reduce; reduction of MIB levels in pond (result in words) (MIB): did not effectively reduce; effect on photosynthesis (result in words) (O. perornata [2]; Schrader et al. 2000): inhibits photosynthesis; activity / toxicity towards O. perornata in the laboratory (result in words) (O. perornata [2]; previous research (Schrader et al. 1998)): high degree of selective toxicity; also recorded: potent activity
"COCCOCCOc1cccc2c1C(=O)c1ccccc1C2=O [DNA3-7-1, 1-[2-(2-Methoxyethoxy)ethoxy]-9,10-anthraquinone]",100 µM,> 100 µM,–,–,–,–,minimal effective concentration (Oscillatoria perornata; Planktothrix perornata): 10 µM; minimal effective concentration [3]: > 100 µM
"O=C1c2ccccc2C(=O)c2c(OCCOCCOCCO)cccc21 [DNA3-15-1, 1-[2-[2-(2-Hydroxyethoxy)ethoxy]ethoxy]-9,10-anthraquinone]",10 µM,> 100 µM,–,–,–,–,minimal effective concentration (Oscillatoria perornata; Planktothrix perornata): 10 µM; minimal effective concentration [3]: 0.01 µM
"O=C1c2ccccc2C(=O)c2cc(COCCOCCOCCOCCO)ccc21 [DNA3-59-1, 2-Methylene-[2-[2-[2-(2-hydroxyethoxy)ethoxy]ethoxy]ethoxy]-9,10-anthraquinone]",–,–,"100,000 nM",0.1 µM,">100,000 nM",">100,000 nM",–
"O=C1c2cccc(O)c2C(=O)c2c(O)cccc21 [1,8-dihydroxyanthraquinone, reference compound]",100 µM,> 100 µM,–,–,–,–,–
"CCN(CC)Cc1ccc2c(c1)C(=O)c1ccccc1C2=O.O=P(O)(O)O [DNA2-51-1, 2-[Methylamino-N,N-(diethyl)]-9,10-anthraquinone monophosphate]",–,–,–,0.1 µM,"100,000 nM","10,000 nM",MIC (Oscillatoria perornata): 0.1 µM
"CN(C)CCCNCc1ccc2c(c1)C(=O)c1ccccc1C2=O.O=P(O)(O)O.O=P(O)(O)O [DNA2-23-1, 2-[Methylamino-N-(propyl-3′-N,N-dimethylamino)]-9,10-anthraquinone diphosphate]",–,–,"1,000 nM",0.1 µM,"10,000 nM","10,000 nM",–
"CNCc1ccc2c(c1)C(=O)c1ccccc1C2=O.O=P(O)(O)O [DNA3-19-1, 2-[Methylamino-N-(methyl)]-9,10-anthraquinone monophosphate]",–,–,"1,000 nM",–,"10,000 nM","10,000 nM","LOEC (lowest-observed-effect concentration), Oscillatoria perornata (Oscillatoria perornata): 1,000 nM"
"O=C1c2ccccc2C(=O)c2c(O)ccc(O)c21 [1,4-dihydroxyanthraquinone, reference compound]",> 100 µM,> 100 µM,–,–,–,–,–
